Assay results reported in article PMC11999280, “Design and screening of novel endosomal escape compounds that enhance functional delivery of oligonucleotides in vitro” (Molecular Therapy. Nucleic Acids, 2025).

Tests used:
Format in all cases: cell-based
[1] = system: mCherry-GAL9 expressing U2OS cells; experiment: GAL9 recruitment assay, U2OS; conditions: calculated mean from >3 independent exp.
Summary of the method: (§1)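 Stable 8× mCherry-GAL9 cell lines seeded 24 h before acoustic dose-response compound addition; endpoint cells fixed with 4% paraformaldehyde, Hoechst-stained. Spinning-disk confocal imaging (×20 water objective) with image-based identification and quantification of mCherry-GAL9 structures as endosomal remodeling read-out. N = 3 experiments, duplicate wells.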

[2] = system: HeLa_Luc705 cells (pLuc/705 splice-switching reporter); experiment: Functional 705-SSO delivery, luciferase splice-switching assay; conditions: for Luciferase expression compared to reference: mean from >3 independent experiments
Summary of the method: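 Cells seeded at 10,000/well were pre-incubated 24 h with 1–2 μM 2′-O-methyl phosphorothioate 705-SSO, then exposed to endosomal escape enhancer at the stated concentrations. After 24 h, cells were lysed in 0.1% Triton X-100 and firefly luciferase luminescence was read as the splice-correction signal. LF2000 lipofection with 100–200 nM SSO served as transfection control.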

[3] = system: mCherry-GAL9 expressing SHSY5Y cells; experiment: GAL9 recruitment assay, SHSY5Y; conditions: calculated mean from >3 independent exp.
Summary of the method: as §1

[4] = system: mCherry-GAL9 expressing NCI-H358 cells; experiment: GAL9 recruitment assay, NCI-H358; conditions: calculated mean from >3 independent exp.
Summary of the method: as §1

[5] = system: mCherry-GAL9 expressing HEK293 cells; experiment: GAL9 recruitment assay, HEK293; conditions: calculated mean from >3 independent exp.
Summary of the method: as §1

[6] = system: cell lines carrying an mCherry-GAL9-reporter; experiment: GAL9 puncta formation upon EEE dose escalation (images); conditions: dose escalation 0.31 to 10 μM
Protocol: We further studied endosomal leakage by quantifying GAL9 recruitment upon EEE dose escalation, from 0.31 to 10 μM. For this purpose, we used cell lines carrying an mCherry-GAL9-reporter, where endosomal rupture could be quantified by measuring GAL9 clustering as a puncta event representative of endosomal remodeling.
Experiments assessing GAL9 localization as an indicator for endosomal remodeling were performed as previously described[15] using 8× stablemCherry-GAL9 expressing cell lines, SHSY5Y, U2OS, 16HBE, NCI-H358, HuH7, HepG2, HEK293, and HeLa. For mCherry-GAL9 recruitment, 3,000 or 6,500 cells/well (depending upon cell line) were seeded into 384-well CellCarrier Ultra plates 24 h prior to treatment (PerkinElmer, catalog no. 6007558). An Echo 655T acoustic dispenser (Labcyte) was used for EEE dose-response preparation by transferring to the cell plate. At assay endpoints, cells were PBS washed, 4% paraformaldehyde fixed at room temperature […] (VWR, catalog no. 9713.1000), and nuclei stained with PBS +1 μg/mL Hoechst 33342 (Thermo Fisher Scientific, catalog no. H21492).
Imaging was performed using a spinning-disk confocal microscope (Yokogawa: CV8000) with a ×20w objective (numerical aperture 1.0). Cells and mCherry-GAL9 structure identification and quantification were done using Columbus image-analysis software (PerkinElmer version 2.9.0). […]

[7] = system: mCherry-GAL9 expressing HeLa cells; experiment: GAL9 recruitment assay, HeLa; conditions: calculated mean from >3 independent exp.
Summary of the method: as §1

[8] = system: mCherry-GAL9 expressing HuH7 cells; experiment: GAL9 recruitment assay, HuH7; conditions: calculated mean from >3 independent exp.
Summary of the method: as §1

[9] = system: mCherry-GAL9 expressing HepG2 cells; experiment: GAL9 recruitment assay, HepG2; conditions: calculated mean from >3 independent exp.
Summary of the method: as §1

[10] = system: mCherry-GAL9 expressing 16HBE cells; experiment: GAL9 recruitment assay, 16HBE; conditions: calculated mean from >3 independent exp.
Summary of the method: as §1

[11] = system: PPIB mRNA in primary human hepatocytes; experiment: PPIB siRNA knockdown, qPCR; conditions: EEE32 at 2 μM with GalNAc-siPPIB
Protocol: Studies of siRNA knockdown therapeutics were performed in primary human hepatocytes using EEE32-mediated enhancement. We aimed to target peptidylpropyl isomerase B (PPIB) mRNA by using siRNA (siPPIB) either alone or together with the EEE32 and comparing them with GalNAc-conjugated siRNA (GalNAc-siPPIB), which is considered a potent human liver uptake enhancer.[30] […] However, the use of EEE32 at a 2-μM concentration enhanced GalNAc-siPPIB activity, improving the knockdown capacity by approximately 10-fold (Figure 5B, top). Additionally, no significant differences indicating compromised cell viability were observed when measuring systematic decreases in RNA yield from both groups (Figure 5B, bottom).
Human primary hepatocytes obtained from a commercial supplier (QNT lot, BioIVT) were cultured in rat tail collagen I-coated 96-well plates (Corning, catalog no. 354407) using William’s E Medium (A1217601,Thermo Fisher) supplemented with thawing and plating supplements (Thermo Fisher, catalog no. CM3000) (day 0). […]

[12] = HeLa-Luc705 + 1 µM SSO, EEE 0.5 µM
[13] = HeLa-Luc705 + 1 µM SSO, EEE 2 µM
[14] = HeLa-Luc705 + 1 µM SSO, EEE 4 µM
[15] = HeLa-Luc705 + 1 µM SSO, EEE 5 µM

COc1nn(C2CCN(C)CC2)cc1Nc1ncc(F)c(-n2ccc3c(C#N)cccc32)n1 [EEE8]
Gal9 response compared to reference ([1]; EEE 0.31 µM): 0.012
Gal9 response compared to reference ([1]; EEE 0.62 µM): 0.013
Gal9 response compared to reference ([1]; EEE 1.25 µM): 0.029
Gal9 response compared to reference ([1]; EEE 2.5 µM): 0.234
Gal9 response compared to reference ([1]; EEE 5 µM): 0.490
Gal9 response compared to reference ([1]; EEE 10 µM): 0.563
Luciferase expression compared to reference [2, 12]: 0.717
Luciferase expression compared to reference [2, 13]: 2.253
Luciferase expression compared to reference [2, 14]: 11.227
Luciferase expression compared to reference [2, 15]: 31.147
Luciferase expression compared to reference ([2]; HeLa-Luc705 + 2 µM SSO, EEE 5 µM): 52.876
EEE dose required to show splice-switching above 10-fold normalized to SSO only ([2]; dose-response, 1 μM SSO): 4.5 μM
Gal9 response compared to reference ([3]; EEE 0.31 µM): 0.014
Gal9 response compared to reference ([3]; EEE 0.62 µM): 0.082
Gal9 response compared to reference ([3]; EEE 1.25 µM): 0.694
Gal9 response compared to reference ([3]; EEE 2.5 µM): 0.629
Gal9 response compared to reference ([3]; EEE 5 µM): 0.567
Gal9 response compared to reference ([3]; EEE 10 µM): 0.278
Gal9 response compared to reference ([4]; EEE 0.31 µM): 0.017
Gal9 response compared to reference ([4]; EEE 0.62 µM): 0.032
Gal9 response compared to reference ([4]; EEE 1.25 µM): 0.148
Gal9 response compared to reference ([4]; EEE 2.5 µM): 0.553
Gal9 response compared to reference ([4]; EEE 5 µM): 0.623
Gal9 response compared to reference ([4]; EEE 10 µM): 0.457
Gal9 response compared to reference ([5]; EEE 0.31 µM): 0.027
Gal9 response compared to reference ([5]; EEE 0.62 µM): 0.052
Gal9 response compared to reference ([5]; EEE 1.25 µM): 0.309
Gal9 response compared to reference ([5]; EEE 2.5 µM): 0.657
Gal9 response compared to reference ([5]; EEE 5 µM): 0.605
Gal9 response compared to reference ([5]; EEE 10 µM): 0.329
EEE concentration with clear GAL9 puncta formation [6]: ≥ 1.25 µM
Gal9 response compared to reference ([7]; EEE 0.31 µM): 0.004
Gal9 response compared to reference ([7]; EEE 0.62 µM): 0.009
Gal9 response compared to reference ([7]; EEE 1.25 µM): 0.105
Gal9 response compared to reference ([7]; EEE 2.5 µM): 0.319
Gal9 response compared to reference ([7]; EEE 5 µM): 0.459
Gal9 response compared to reference ([7]; EEE 10 µM): 0.198
Gal9 response compared to reference ([8]; EEE 0.31 µM): 0.010
Gal9 response compared to reference ([8]; EEE 0.62 µM): 0.016
Gal9 response compared to reference ([8]; EEE 1.25 µM): 0.078
Gal9 response compared to reference ([8]; EEE 2.5 µM): 0.313
Gal9 response compared to reference ([8]; EEE 5 µM): 0.228
Gal9 response compared to reference ([8]; EEE 10 µM): 0.160
Gal9 response compared to reference ([9]; EEE 0.31 µM): 0.007
Gal9 response compared to reference ([9]; EEE 0.62 µM): 0.008
Gal9 response compared to reference ([9]; EEE 1.25 µM): 0.011
Gal9 response compared to reference ([9]; EEE 2.5 µM): 0.075
Gal9 response compared to reference ([9]; EEE 5 µM): 0.511
Gal9 response compared to reference ([9]; EEE 10 µM): 0.529
Gal9 response compared to reference ([10]; EEE 0.31 µM): 0.011
Gal9 response compared to reference ([10]; EEE 0.62 µM): 0.035
Gal9 response compared to reference ([10]; EEE 1.25 µM): 0.180
Gal9 response compared to reference ([10]; EEE 2.5 µM): 0.503
Gal9 response compared to reference ([10]; EEE 5 µM): 0.638
Gal9 response compared to reference ([10]; EEE 10 µM): 0.492

COc1nn(C2CCNC(C)(C)C2)cc1Nc1ncc(F)c(-n2ccc3c(C#N)cccc32)n1 (centres unmarked) [EEE32]
Improvement of GalNAc-siPPIB knockdown capacity [11]: approximately 10 fold
Luciferase expression compared to reference [2, 12]: 3.743
Luciferase expression compared to reference [2, 13]: 115.294
Luciferase expression compared to reference [2, 14]: 111.401
Luciferase expression compared to reference [2, 15]: 66.337
Splice-switching with 24-h SSO pre-incubation relative to SSO co-treatment ([2]; dose response, luciferase readout at time points after EEE addition): around 17 times
Splice-switching enhancement ([2]; using 2–2.5 μM EEE): above 100 fold
